We go through ten compounds from ChEMBL document CHEMBL1201862, “PubChem BioAssay data set” (2004).

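Five concentrations, 48 hours, 96-well plates. The concentration for 50% growth inhibition is given as GI50.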 Activity calls are given as the source filed them. No stated cut-off is given here; in the data, active = GI50 up to about 1.1 µM and inactive = higher. Where only a bound is given, the exact number is not on record here.

Some test systems named below: SNB-19; SF-268; HOP-62; UACC-62; HCT-116; NCI-H23; EKVX; RPMI-8226; LOX IMVI; SF-539; SR; SW-620; NCI-H522; SN12C; RXF 393; SK-MEL-5; UACC-257; OVCAR-8; IGROV-1; HT-29.
Common to all, as to assay: NCI-60 cell line screen, 48 h

As for `COc1cc(/C=C2/SC(c3ccccc3)N(c3ccccc3)C2=O)cc(OC)c1OC` (configuration not stated), the GI50 was > 100 µM (inactive) with SNB-19; > 100 µM (inactive) with SF-268; 44.8 µM (inactive) with HOP-62; 24.4 µM (inactive) with UACC-62; 15.7 µM (inactive) in the assay with HCT-116; 42.5 µM (inactive) in the assay on NCI-H23. The GI50 in the assay on EKVX is 51.6 µM (inactive); with RPMI-8226, 9.66 µM (inactive); in the assay with LOX IMVI, 69.5 µM (inactive); in the assay on SF-539, > 100 µM (inactive); in the assay with SR, 14 µM (inactive); in the assay with SW-620, > 100 µM (inactive). The GI50 with NCI-H522 is 21.7 µM (inactive); with SN12C, > 100 µM (inactive); in the assay on RXF 393, 23.7 µM (inactive); with SK-MEL-5, 12.1 µM (inactive); in the assay on UACC-257, 61.8 µM (inactive); in the assay on OVCAR-8, 76.4 µM (inactive).

For `Nc1nc2[nH]cnc2c(=O)[nH]1`, the GI50 in the assay on SF-268, with HOP-62, with UACC-62, in the assay on HCT-116, in the assay on NCI-H23 and with EKVX was > 100 µM (inactive) throughout. The GI50 in the assay on RPMI-8226, with LOX IMVI, in the assay with IGROV-1, with SF-539, in the assay on SR and in the assay with HT-29 was > 100 µM (inactive) in each case. In addition, the GI50 in the assay on SW-620, in the assay with NCI-H522, with SN12C, with RXF 393, in the assay on SK-MEL-5 and in the assay on UACC-257 was > 100 µM (inactive) throughout. Further, the GI50 in the assay on OVCAR-8 was > 100 µM (inactive).

On to `CCN(CC)C(=O)N1CN(c2ccccc2)C2(CCN(CCCC3(c4ccc(F)cc4)OCCO3)CC2)C1=O`, for which the GI50 with SNB-19 is 30.3 µM (inactive); with SF-268 it was 20.6 µM (inactive); in the assay with HOP-62 it was 4.26 µM (inactive); with UACC-62 it was 17.4 µM (inactive); in the assay on HCT-116, 11.7 µM (inactive); in the assay on NCI-H23 it was 16.1 µM (inactive). In addition, the GI50 in the assay on EKVX is 25.9 µM (inactive); in the assay on RPMI-8226 it was 12.9 µM (inactive); with LOX IMVI, 12.7 µM (inactive); in the assay with SF-539, 16.6 µM (inactive); in the assay on SR, 11.6 µM (inactive); in the assay on SW-620 it was 18 µM (inactive). Further, the GI50 is 13.7 µM (inactive) in the assay with NCI-H522; 16.9 µM (inactive) with SN12C; 14.7 µM (inactive) in the assay on RXF 393; 12.9 µM (inactive) with SK-MEL-5; 12.4 µM (inactive) with UACC-257; 19.8 µM (inactive) in the assay on OVCAR-8.

For `CC1CC(C)CN(S(=O)(=O)c2cc(Cl)c(Oc3ccc([N+](=O)[O-])cc3Cl)c(Cl)c2)C1` (configuration not stated), the GI50 in the assay on SNB-19, in the assay with SF-268, in the assay on HOP-62, with UACC-62, with HCT-116 and in the assay on NCI-H23 was > 100 µM (inactive) each time. Moreover, the GI50 in the assay with EKVX, with RPMI-8226, in the assay with LOX IMVI, with IGROV-1, with SF-539 and in the assay with SR was > 100 µM (inactive) each time. Further, the GI50 with HT-29, in the assay with SW-620, with NCI-H522, with SN12C, in the assay on RXF 393 and in the assay on SK-MEL-5 was > 100 µM (inactive) in each case. The GI50 with UACC-257 and in the assay with OVCAR-8 was > 100 µM (inactive) throughout.

As to `CCOC(=O)C1=C(C)N(Cc2ccc(Cl)cc2Cl)C2(O)C=CC(=O)C3C(=O)N(c4ccccc4)C(=O)C132` (configuration not stated), the GI50 with SNB-19 was 1.88 µM (inactive); in the assay with SF-268, 2.38 µM (inactive); with HOP-62, 2.87 µM (inactive); in the assay on UACC-62 it was 1.63 µM (inactive); in the assay with HCT-116, 3.11 µM (inactive); with NCI-H23, 1.63 µM (inactive). Also, the GI50 was 1.89 µM (inactive) with EKVX; 0.308 µM (active) in the assay with RPMI-8226; 0.682 µM (active) with LOX IMVI; 1.78 µM (inactive) in the assay on IGROV-1; 2.23 µM (inactive) in the assay with SF-539; 0.51 µM (active) in the assay on SR. Besides, the GI50 in the assay on HT-29 was 1.69 µM (inactive); in the assay with SW-620 it was 1.32 µM (inactive); with NCI-H522, 1.72 µM (inactive); in the assay on SN12C it was 1.91 µM (inactive); in the assay on RXF 393, 1.32 µM (inactive); in the assay with SK-MEL-5 it was 2.09 µM (inactive). The GI50 with UACC-257 was 2.2 µM (inactive); in the assay with OVCAR-8, 2.02 µM (inactive).

As for `Cn1cnc([N+](=O)[O-])c1Sc1nc2ccccc2o1`, the GI50 is 17.7 µM (inactive) in the assay with SNB-19; 8.32 µM (inactive) with SF-268; 36.8 µM (inactive) in the assay on HOP-62; 12.4 µM (inactive) in the assay on UACC-62; 3.58 µM (inactive) with HCT-116; 5.22 µM (inactive) in the assay on NCI-H23. In addition, the GI50 was 10.2 µM (inactive) with EKVX; 3.45 µM (inactive) in the assay with RPMI-8226; 10.7 µM (inactive) in the assay on LOX IMVI; 13.2 µM (inactive) in the assay on IGROV-1; 9.64 µM (inactive) in the assay on SF-539; 2.49 µM (inactive) with SR. In addition, the GI50 in the assay with HT-29 is 3.44 µM (inactive); in the assay on SW-620 it was 3.72 µM (inactive); in the assay on NCI-H522 it was 1.8 µM (inactive); with SN12C, 6.78 µM (inactive); in the assay on RXF 393, 8.91 µM (inactive); in the assay on SK-MEL-5 it was 13.3 µM (inactive). Also, the results for the GI50 with UACC-257 and with OVCAR-8 were 5.86 µM (inactive) and 2.82 µM (inactive), respectively.

For the compound `O/N=N/c1ccccn1.OCC1OC2OC3C(CO)OC(OC4C(CO)OC(OC5C(CO)OC(OC6C(CO)OC(OC7C(CO)OC(OC1C(O)C2O)C(O)C7O)C(O)C6O)C(O)C5O)C(O)C4O)C(O)C3O` (configuration not stated), the GI50 in the assay with SNB-19 is 63.7 µM (inactive); in the assay on SF-268 it was > 100 µM (inactive); with HOP-62, > 100 µM (inactive); in the assay with UACC-62 it was 47.9 µM (inactive); in the assay on HCT-116 it was 41.6 µM (inactive); in the assay with NCI-H23, > 100 µM (inactive). Further, the GI50 with EKVX is > 100 µM (inactive); in the assay on RPMI-8226, 27.3 µM (inactive); in the assay on LOX IMVI it was 57.3 µM (inactive); with IGROV-1, > 100 µM (inactive); in the assay on SF-539 it was 52.8 µM (inactive); in the assay with SR, 0.583 µM (active). Also, the GI50 in the assay on HT-29 was > 100 µM (inactive); with SW-620, 42.1 µM (inactive); in the assay on NCI-H522 it was 68.2 µM (inactive); with SN12C, > 100 µM (inactive); with RXF 393, > 100 µM (inactive); in the assay with SK-MEL-5, 30.5 µM (inactive). For the same compound, the GI50 in the assay on UACC-257 is 71.1 µM (inactive); with OVCAR-8 it was > 100 µM (inactive).

In the case of `N#Cc1cc(C#N)c(N)nc1N`, the GI50 in the assay on SNB-19, in the assay on HOP-62, in the assay on UACC-62, in the assay on HCT-116, in the assay on NCI-H23 and in the assay with EKVX was > 100 µM (inactive) throughout. In addition, the GI50 in the assay on RPMI-8226 is > 100 µM (inactive); in the assay with LOX IMVI, 29.9 µM (inactive); in the assay on IGROV-1, > 100 µM (inactive); in the assay on SF-539, > 100 µM (inactive); in the assay on SR, 19.1 µM (inactive); with HT-29, > 100 µM (inactive). The GI50 in the assay on SW-620, with NCI-H522, with SN12C, in the assay with RXF 393, with SK-MEL-5 and in the assay with UACC-257 was > 100 µM (inactive) each time. The GI50 in the assay on OVCAR-8 was > 100 µM (inactive).

As to `COC(=O)[C@@]1(C(C)CC(=O)O)CCCCC1=O` (some centres not stated), the GI50 in the assay with SNB-19, in the assay with SF-268, in the assay on HOP-62, in the assay on UACC-62, with HCT-116 and with NCI-H23 was > 100 µM (inactive) throughout. Also, the GI50 in the assay with EKVX was > 100 µM (inactive); with RPMI-8226 it was 34.3 µM (inactive); in the assay with LOX IMVI, 93.8 µM (inactive); with IGROV-1 it was > 100 µM (inactive); in the assay on SF-539, > 100 µM (inactive); with SR, 37.8 µM (inactive). Besides, the GI50 in the assay on HT-29, in the assay on NCI-H522, with SN12C, in the assay with RXF 393, in the assay on SK-MEL-5 and with UACC-257 was > 100 µM (inactive) in each case. Further, in the assay on OVCAR-8, the GI50 is > 100 µM (inactive).

For the compound `N#Cc1nc(-c2ccco2)oc1N`, the GI50 with SNB-19, with SF-268, in the assay on HOP-62, in the assay with UACC-62, in the assay on HCT-116 and with NCI-H23 was > 10 µM (inactive) in each case. The GI50 in the assay with EKVX, in the assay on RPMI-8226, in the assay on LOX IMVI, with IGROV-1, in the assay with SF-539 and with SR was > 10 µM (inactive) each time. In addition, the GI50 in the assay on HT-29, in the assay with SW-620, in the assay on NCI-H522, in the assay with RXF 393, with SK-MEL-5 and in the assay on UACC-257 was > 10 µM (inactive) in each case. Further, the GI50 in the assay on OVCAR-8 is > 10 µM (inactive).
